Data taken from PMC5640650, “NatD promotes lung cancer progression by preventing histone H4 serine phosphorylation to activate Slug expression” (Nature Communications, 2017).

Experiments:
[1] = test system: H1299 cells; assay: Apoptosis and cell cycle by flow cytometry, H1299 cells; assay type: cell-based, human; conditions: vs Scr
Protocol: The in vitro viability of H1299 cells was assessed using the Cell Counting Kit-8 (CCK-8, Dojindo, Japan) according to the manufacturer’s protocol. Flow cytometric analysis of apoptosis was assessed by Annexin V and PI staining using the Annexin V-APC Apoptosis Detection Kit (KeyGEN BioTECH, China) according to the manufacturer’s guide. For cell cycle analysis, cells were harvested and fixed at 4 °C overnight with 70% ethanol. Cells were washed twice with PBS, and their DNA was stained using a Cell Cycle Detection Kit (KeyGEN BioTECH, China). The samples were analyzed by flow cytometry (Becton Dickinson, NJ, USA), and results were analyzed with FlowJo software according to the manufacturer’s instructions. For the wound healing assay, cells were plated to confluence in a 6-well plate, and the cell monolayer was scratched using a pipette tip. Representative photos were taken using a digital camera mounted on an inverted microscope (Olympus) at indicated times. Live cell imaging was performed using the HoloMonitor M4 time-lapse cytometer (Phase Holographic Imaging, Sweden). […]
Supplementary Figure 1. […] (b and c) Representative images from three independent experiments of apoptosis (b) and cell cycle analysis (c) of Scr and NatD-KD H1299 cells analyzed by flow cytometry. […]

[2] = test system: H1299 cells; assay: TGF-β1-induced EMT experiment (morphology), H1299 cells; assay type: cell-based, human; conditions: TGF-β1-treated NatD knockdown H1299 cells
Text: Fig. 4 Silencing NatD suppresses cancer cell EMT by downregulating Slug. a Representative phase contrast images of Scr and NatD-KD H1299 cells treated with TGF-β1. Data are representative of three independent experiments. Scale bar, 100 μm. b Quantitative real-time PCR analysis of mRNA levels of indicated key EMT-related genes in Scr and NatD-KD H1299 cells normalized to GAPDH in the absence or presence of TGF-β1. Results are shown as mean ± s.d. of three independent experiments. Two-tailed Student’s t-test was used. **P < 0.01 or *P < 0.05 compared with the indicated control. c Western blot analysis of indicated protein levels in Scr and NatD-KD H1299 cells in the absence or presence of TGF-β1. GAPDH served as a loading control. Data are representative of three independent experiments. d Immunofluorescence analysis of Scr and NatD-KD H1299 cells in the absence or presence of TGF-β1 stained for E-cadherin and N-cadherin. […] (bottom panels) Cells were counted in at least four random microscope fields (×100 magnification) for the corresponding assays; migration and invasion are expressed as a percentage of control. […] Two-tailed Student’s t-test was used. **P < 0.01 compared with the indicated control. g Quantitative real-time PCR analysis of the mRNA levels of NatD and indicated key EMT-related genes (normalized to GAPDH) in Scr cells, NatD-KD cells, and NatD-KD + Slug cells. […]

NatD-KD2: Human NatD shRNA KD2: 5′-GGTTGAATGTCTCCATTGA-3′, lentiviral (shRNA lentiviral)
numbers of apoptotic cells or cell cycle [1]: no difference
morphology on TGF-β1 treatment, NatD knockdown cells [2]: mostly retained their rounded epithelial morphology
